Source: ChEMBL document CHEMBL1687752, “Impact of antifungal prophylaxis on colonization and azole susceptibility of Candida species” (2009)
In brackets after ≈: the same amount, converted by molar mass.

How the values were obtained:
Assay type in all cases: functional
Nakaseomyces glabratus [1] = experiment: Antifungal activity against 16 days cultured Candida glabrata isolated from invasive fungal infected subject blood after 17 days of prophylaxis by broth microdilution method
Pichia kudriavzevii [2] = experiment: Antifungal activity against 8 days cultured Candida krusei isolated from neutropenic subject with AML or MDS stool after 12 days of prophylaxis by broth microdilution method
Nakaseomyces glabratus [3] = experiment: Antifungal activity against 88 days cultured Candida glabrata isolated from HSCT recipient with acute or chronic GVHD mouth receiving antifungal therapy for 75 days after 33 days of prophylaxis by broth microdilution method
Nakaseomyces glabratus [4] = experiment: Antifungal activity against 43 days cultured Candida glabrata isolated from HSCT recipient with acute or chronic GVHD mouth receiving antifungal therapy for 172 days after 114 days of prophylaxis by broth microdilution method
Pichia kudriavzevii [5] = experiment: Antifungal activity against 6 days cultured Candida krusei isolated from neutropenic subject with AML or MDS pharynx receiving antifungal therapy for 19 days after 6 days of prophylaxis by broth microdilution method
Nakaseomyces glabratus [6] = experiment: Ratio of URA3 gene expression in Candida glabrata isolated from patient 975 receiving antifungal drug to URA3 gene expression in Candida glabrata isolated from patient 975 by RT-PCR analysis
Candida albicans [7] = experiment: Antifungal activity against Candida albicans isolated from neutropenic subjects with AML or MDS receiving posaconazole by broth microdilution method
Candida albicans [8] = experiment: Antifungal activity against Candida albicans isolated from neutropenic subjects with AML or MDS receiving posaconazole assessed as maximum MIC by broth microdilution method
Pichia kudriavzevii [9] = experiment: Antifungal activity against Candida krusei isolated from HSCT recipients with acute or chronic GVHD receiving fluconazole by broth microdilution method
Pichia kudriavzevii [10] = experiment: Antifungal activity against Candida krusei isolated from neutropenic subjects with AML or MDS receiving fluconazole assessed as maximum MIC by broth microdilution method
Nakaseomyces glabratus [11] = experiment: Antifungal activity against Candida glabrata isolated from neutropenic subject 1318 with AML or MDS stool after 36 days prophylaxis by broth microdilution method
Nakaseomyces glabratus [12] = experiment: Antifungal activity against Candida glabrata isolated from neutropenic subject 1187 with AML or MDS stool after 22 days prophylaxis by broth microdilution method; conditions: 528 h
Nakaseomyces glabratus [13] = experiment: Antifungal activity against Candida glabrata isolated from HSCT recipient 474 with acute or chronic GVHD mouth receiving antifungal drug after 124 days prophylaxis by broth microdilution method
Saccharomyces cerevisiae = experiment: Antifungal activity against Saccharomyces cerevisiae isolated from HSCT recipient 513 with acute or chronic GVHD mouth receiving antifungal drug after 112 days prophylaxis by broth microdilution method
Nakaseomyces glabratus [14] = experiment: Antifungal activity against Candida glabrata isolated from neutropenic subject 1331 with AML or MDS pharynx receiving antifungal drug after 21 days prophylaxis by broth microdilution method; conditions: 504 h
Nakaseomyces glabratus [15] = experiment: Antifungal activity against Candida glabrata isolated from HSCT recipient 491 with acute or chronic GVHD mouth after 112 days prophylaxis by broth microdilution method
Nakaseomyces glabratus [16] = experiment: Ratio of CDR1 gene expression in Candida glabrata isolated from patient 186 receiving antifungal drug to CDR1 gene expression in Candida glabrata isolated from patient 186 by RT-PCR analysis
Nakaseomyces glabratus [17] = experiment: Ratio of CDR2 gene expression in Candida glabrata isolated from patient 186 receiving antifungal drug to CDR2 gene expression in Candida glabrata isolated from patient 186 by RT-PCR analysis
Nakaseomyces glabratus [18] = experiment: Ratio of ERG11 gene expression in Candida glabrata isolated from patient 186 receiving antifungal drug to ERG11 gene expression in Candida glabrata isolated from patient 186 by RT-PCR analysis
Nakaseomyces glabratus [19] = experiment: Ratio of URA3 gene expression in Candida glabrata isolated from patient 186 receiving antifungal drug to URA3 gene expression in Candida glabrata isolated from patient 186 by RT-PCR analysis
Nakaseomyces glabratus [20] = experiment: Ratio of CDR1 gene expression in Candida glabrata isolated from patient 975 receiving antifungal drug to CDR1 gene expression in Candida glabrata isolated from patient 975 by RT-PCR analysis
Nakaseomyces glabratus [21] = experiment: Ratio of CDR2 gene expression in Candida glabrata isolated from patient 975 receiving antifungal drug to CDR2 gene expression in Candida glabrata isolated from patient 975 by RT-PCR analysis
Nakaseomyces glabratus [22] = experiment: Ratio of ERG11 gene expression in Candida glabrata isolated from patient 975 receiving antifungal drug to ERG11 gene expression in Candida glabrata isolated from patient 975 by RT-PCR analysis
Nakaseomyces glabratus [23] = experiment: Ratio of CDR1 gene expression in Candida glabrata isolated from patient 491 receiving antifungal drug to CDR1 gene expression in Candida glabrata isolated from patient 491 by RT-PCR analysis
Nakaseomyces glabratus [24] = experiment: Ratio of ERG11 gene expression in Candida glabrata isolated from patient 491 receiving antifungal drug to ERG11 gene expression in Candida glabrata isolated from patient 491 by RT-PCR analysis
Nakaseomyces glabratus [25] = experiment: Ratio of URA3 gene expression in Candida glabrata isolated from patient 491 receiving antifungal drug to URA3 gene expression in Candida glabrata isolated from patient 491 by RT-PCR analysis
Nakaseomyces glabratus [26] = experiment: Ratio of CDR1 gene expression in Candida glabrata isolated from patient 002 receiving antifungal drug to CDR1 gene expression in Candida glabrata isolated from patient 002 by RT-PCR analysis
Nakaseomyces glabratus [27] = experiment: Ratio of CDR2 gene expression in Candida glabrata isolated from patient 002 receiving antifungal drug to CDR2 gene expression in Candida glabrata isolated from patient 002 by RT-PCR analysis
Nakaseomyces glabratus [28] = experiment: Ratio of ERG11 gene expression in Candida glabrata isolated from patient 002 receiving antifungal drug to ERG11 gene expression in Candida glabrata isolated from patient 002 by RT-PCR analysis
Nakaseomyces glabratus [29] = experiment: Ratio of URA3 gene expression in Candida glabrata isolated from patient 002 receiving antifungal drug to URA3 gene expression in Candida glabrata isolated from patient 002 by RT-PCR analysis
Nakaseomyces glabratus [30] = experiment: Ratio of CDR1 gene expression in Candida glabrata isolated from patient 497 receiving antifungal drug to CDR1 gene expression in Candida glabrata isolated from patient 497 by RT-PCR analysis
Nakaseomyces glabratus [31] = experiment: Ratio of CDR2 gene expression in Candida glabrata isolated from patient 497 receiving antifungal drug to CDR2 gene expression in Candida glabrata isolated from patient 497 by RT-PCR analysis
Nakaseomyces glabratus [32] = experiment: Ratio of ERG11 gene expression in Candida glabrata isolated from patient 497 receiving antifungal drug to ERG11 gene expression in Candida glabrata isolated from patient 497 by RT-PCR analysis
Nakaseomyces glabratus [33] = experiment: Ratio of URA3 gene expression in Candida glabrata isolated from patient 497 receiving antifungal drug to URA3 gene expression in Candida glabrata isolated from patient 497 by RT-PCR analysis
Nakaseomyces glabratus [34] = experiment: Ratio of CDR1 gene expression in Candida glabrata isolated from patient 807 receiving antifungal drug to CDR1 gene expression in Candida glabrata isolated from patient 807 by RT-PCR analysis
Nakaseomyces glabratus [35] = experiment: Ratio of ERG11 gene expression in Candida glabrata isolated from patient 807 receiving antifungal drug to ERG11 gene expression in Candida glabrata isolated from patient 807 by RT-PCR analysis
Nakaseomyces glabratus [36] = experiment: Ratio of URA3 gene expression in Candida glabrata isolated from patient 807 receiving antifungal drug to URA3 gene expression in Candida glabrata isolated from patient 807 by RT-PCR analysis

Row | SMILES | MIC (Nakaseomyces glabratus [1]) | MIC (Pichia kudriavzevii [2]) | MIC (Nakaseomyces glabratus [3]) | MIC (Nakaseomyces glabratus [4]) | MIC (Pichia kudriavzevii [5]) | MIC50 (Candida albicans [7]) | MIC90 (Candida albicans [7]) | MIC (Candida albicans [8]) | MIC50 (Pichia kudriavzevii [9]) | MIC90 (Pichia kudriavzevii [9]) | MIC (Pichia kudriavzevii [10]) | MIC (Nakaseomyces glabratus [11]) | MIC (Nakaseomyces glabratus [12]) | MIC (Nakaseomyces glabratus [13]) | MIC (Saccharomyces cerevisiae) | MIC (Nakaseomyces glabratus [14]) | further results
1 | CC[C@@H]([C@H](C)O)n1ncn(-c2ccc(N3CCN(c4ccc(OC[C@@H]5CO[C@@](Cn6cncn6)(c6ccc(F)cc6F)C5)cc4)CC3)cc2)c1=O [POSACONAZOLE] | > 8 µg/mL | 0.125 µg/mL (≈ 0.178 µM) | 2 µg/mL (≈ 2.85 µM) | 1 µg/mL (≈ 1.43 µM) | 0.06 µg/mL (≈ 0.0856 µM) | 0.015 µg/mL (≈ 0.0214 µM) | 0.015 µg/mL (≈ 0.0214 µM) | 0.03 µg/mL | 0.25 µg/mL (≈ 0.357 µM) | 0.5 µg/mL (≈ 0.713 µM) | 0.25 µg/mL | 0.5 µg/mL (≈ 0.713 µM) | 0.5 µg/mL (≈ 0.713 µM) | 4 µg/mL (≈ 5.71 µM) | 4 µg/mL (≈ 5.71 µM) | 8 µg/mL (≈ 11.4 µM) | fold change (FC) (Nakaseomyces glabratus [6]): 1.2; MIC (Nakaseomyces glabratus [15]): 0.25 µg/mL (≈ 0.357 µM); fold change (FC) (Nakaseomyces glabratus [16]): -1.5; fold change (FC) (Nakaseomyces glabratus [17]): -1.45; fold change (FC) (Nakaseomyces glabratus [18]): -1.4; fold change (FC) (Nakaseomyces glabratus [19]): -1.4; fold change (FC) (Nakaseomyces glabratus [20]): 2.25; fold change (FC) (Nakaseomyces glabratus [21]): 1.5; fold change (FC) (Nakaseomyces glabratus [22]): 1.6
2 | OC(Cn1cncn1)(Cn1cncn1)c1ccc(F)cc1F [FLUCONAZOLE] | – | > 64 µg/mL | > 64 µg/mL | 16 µg/mL (≈ 52.2 µM) | 32 µg/mL (≈ 104 µM) | 0.25 µg/mL (≈ 0.816 µM) | 0.25 µg/mL (≈ 0.816 µM) | 0.25 µg/mL | 64 µg/mL (≈ 209 µM) | 64 µg/mL (≈ 209 µM) | 64 µg/mL | 4 µg/mL (≈ 13.1 µM) | 16 µg/mL (≈ 52.2 µM) | 64 µg/mL (≈ 209 µM) | 32 µg/mL (≈ 104 µM) | > 64 µg/mL | fold change (FC) (Nakaseomyces glabratus [23]): 4.5; fold change (FC) (Nakaseomyces glabratus [24]): 1.2; fold change (FC) (Nakaseomyces glabratus [25]): 1; fold change (FC) (Nakaseomyces glabratus [26]): 1.5; fold change (FC) (Nakaseomyces glabratus [27]): -1.2; fold change (FC) (Nakaseomyces glabratus [28]): -1.2; fold change (FC) (Nakaseomyces glabratus [29]): -1.2; fold change (FC) (Nakaseomyces glabratus [30]): 1.3; fold change (FC) (Nakaseomyces glabratus [31]): -1.2; fold change (FC) (Nakaseomyces glabratus [32]): -1.2; fold change (FC) (Nakaseomyces glabratus [33]): -1.2; fold change (FC) (Nakaseomyces glabratus [34]): 4.3; fold change (FC) (Nakaseomyces glabratus [35]): 1.1; fold change (FC) (Nakaseomyces glabratus [36]): 1.4
3 | CCC(C)n1ncn(-c2ccc(N3CCN(c4ccc(OCC5COC(Cn6cncn6)(c6ccc(Cl)cc6Cl)O5)cc4)CC3)cc2)c1=O (stereo not given) [ITRACONAZOLE] | > 8 µg/mL | 0.25 µg/mL (≈ 0.354 µM) | 2 µg/mL (≈ 2.83 µM) | 2 µg/mL (≈ 2.83 µM) | 0.5 µg/mL (≈ 0.709 µM) | 0.015 µg/mL (≈ 0.0213 µM) | 0.03 µg/mL (≈ 0.0425 µM) | 0.03 µg/mL | 0.5 µg/mL (≈ 0.709 µM) | 16 µg/mL (≈ 22.7 µM) | 1 µg/mL | 0.25 µg/mL (≈ 0.354 µM) | 1 µg/mL (≈ 1.42 µM) | 8 µg/mL (≈ 11.3 µM) | 4 µg/mL (≈ 5.67 µM) | 8 µg/mL (≈ 11.3 µM) | –
